Consider 1 compound from patent US20200093795A1 (Secura Bio, Inc., priority 2015, published 2020).

Data set [1] deals with patients with relapsed multiple myeloma. As to the kind of experiment: Randomized, double-blind, placebo-controlled, multicenter study (PANORAMA-1) of panobinostat plus bortezomib and dexamethasone. It is filed as in vivo. The procedure: Treatment was administered for a maximum of 16 cycles (48 weeks).
Demographics and baseline disease characteristics were balanced between arms. The median age was 63 years (range 28 to 84); 42% of patients were older than 65 years; 53% of patients were male. The ECOG (Eastern Cooperative Oncology Group) performance status was 0 to 1 in 93% of patients. The median number of prior therapies was 1; 48% of patients received 2 or 3 prior lines of therapy. More than half (57%) of the patients had prior stem cell transplantation. The most common prior antineoplastic therapies were corticosteroids (90%), melphalan (80%), thalidomide (53%), cyclophosphamide (47%), bortezomib (44%), and lenalidomide (19%). The median duration of follow-up was 29 months in both arms.
The primary endpoint was progression-free survival (PFS), using modified European Bone Marrow Transplant Group (EBMT) criteria, as assessed by the investigators. […] The efficacy and safety in a subgroup analysis of 193 patients who had received prior treatment with both bortezomib and an immunomodulatory agent and a median of 2 prior therapies as the benefit: risk appeared to be greater in this more heavily pretreated population than in the overall trial population. Of these 193 patients, 76% of them had received ≥2 prior lines of therapy.

Data set [2] has as its system cardiac ventricular repolarization (QT interval). As to the kind of experiment: Pooled clinical data from over 500 patients treated with single agent panobinostat: QTc prolongation. It is filed as in vivo, human. The text has this: Panobinostat may prolong cardiac ventricular repolarization (QT interval).

Molecules are shown by their SMILES.

Consider `Cc1[nH]c2ccccc2c1CCNCc1ccc(/C=C/C(=O)NO)cc1` [panobinostat], for which the serious toxicities observed entry in data set [1] (PANORAMA clinical study, patients receiving panobinostat) is “severe and fatal ischemic events, severe arrhythmias and ECG changes”. For the same compound, the gastrointestinal toxicity entry in data set [1] (in vivo) was “common”. The “incidence of CTC Grade 3 QTc prolongation (QTcF >500 msec)” value in data set [2] (at a dose of 60 mg or higher) is at least 5%; in data set [2] (multiple indications, different dose levels, overall) it was “approximately 1%”.
